In ChEMBL document CHEMBL1201862, “PubChem BioAssay data set” (2004):
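Grown in 96-well plates, cells were treated for 48 hours with each compound at five concentrations. Insufficient inhibition: endpoint recorded as highest concentration tested. Abbreviation: GI50, concentration required for 50% inhibition of growth.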 The source made the active and inactive calls. Rule as the data show it: active = GI50 up to about 1.1 µM and inactive = higher.

Experiments:
Assay in all cases: DTP human tumour cell line panel, 48 h
IGROV-1 = system: IGROV-1
HL-60 = system: HL-60
ACHN = system: ACHN
786-0 = system: 786-0
UACC-257 = system: UACC-257
K562 = system: K562
HCT-15 = system: HCT-15
SF-295 = system: SF-295
U-251 = system: U-251
SNB-75 = system: SNB-75
SF-539 = system: SF-539
SK-MEL-5 = system: SK-MEL-5
SK-MEL-28 = system: SK-MEL-28
HCT-116 = system: HCT-116
HOP-92 = system: HOP-92
SK-MEL-2 = system: SK-MEL-2
HCC 2998 = system: HCC 2998
OVCAR-4 = system: OVCAR-4

With `CC1(CO)OC(n2cc(C(=O)NC(=O)OCc3ccccc3)c(=O)[nH]c2=O)CC1O` (stereo not given) the GI50 (IGROV-1) was > 100 µM (inactive), the GI50 (HL-60) was > 100 µM (inactive) and the GI50 (ACHN) was > 100 µM (inactive). The GI50 (786-0) was > 100 µM (inactive), the GI50 (UACC-257) was > 100 µM (inactive) and the GI50 (K562) was > 100 µM (inactive). For the same compound, the GI50 (HCT-15) was over 100 µM, the GI50 (SF-295) was > 100 µM (inactive) and the GI50 (U-251) was > 100 µM (inactive). The GI50 (SNB-75) was 84.5 µM (inactive), the GI50 (SF-539) was > 100 µM (inactive) and the GI50 (SK-MEL-5) was > 100 µM (inactive). For the same compound, the GI50 (SK-MEL-28) was > 100 µM (inactive), the GI50 (HCT-116) was > 100 µM (inactive) and the GI50 (HOP-92) was > 100 µM (inactive).
For `O=S(=O)(c1cccc(N=C=S)c1)c1cccc(N=C=S)c1`, the GI50 (SK-MEL-2) was 18.5 µM (inactive), the GI50 (IGROV-1) was 18.7 µM (inactive) and the GI50 (HL-60) was 21.7 µM (inactive). For the same compound, the GI50 (ACHN) was 18.6 µM (inactive), the GI50 (786-0) was 16 µM (inactive) and the GI50 (UACC-257) was 20.4 µM (inactive). For the same compound, the GI50 (K562) was 16.3 µM (inactive), the GI50 (HCT-15) was 18.3 µM and the GI50 (SF-295) was 19.5 µM (inactive). The GI50 (U-251) was 18.9 µM (inactive), the GI50 (SF-539) was > 10 µM (inactive) and the GI50 (SK-MEL-5) was 19.7 µM (inactive). For the same compound, the GI50 (SK-MEL-28) was 18.2 µM (inactive), the GI50 (HCC 2998) was 21.8 µM (inactive) and the GI50 (HCT-116) was 18.1 µM (inactive).
In the case of `O=C(O/N=C1/CCCC/C1=C\c1ccccc1)c1ccc(Cl)c(Cl)c1`, the GI50 (SK-MEL-2) is reported as > 100 µM (inactive), the GI50 (IGROV-1) is reported as 21.5 µM (inactive) and the GI50 (HL-60) is reported as 14.5 µM (inactive). For the same compound, the GI50 (ACHN) was 15.5 µM (inactive), the GI50 (786-0) was 30.2 µM (inactive) and the GI50 (UACC-257) was > 100 µM (inactive). The GI50 (K562) was 15.8 µM (inactive), the GI50 (HCT-15) was 33.3 µM and the GI50 (OVCAR-4) was 20.7 µM (inactive). For the same compound, the GI50 (SF-295) was 31.8 µM (inactive), the GI50 (U-251) was 17.3 µM (inactive) and the GI50 (SNB-75) was 27.5 µM (inactive). For the same compound, the GI50 (SF-539) was 24.5 µM (inactive), the GI50 (SK-MEL-5) was 38.5 µM (inactive) and the GI50 (SK-MEL-28) was 18.3 µM (inactive). The GI50 (HCC 2998) was > 100 µM (inactive), the GI50 (HCT-116) was 13.6 µM (inactive) and the GI50 (HOP-92) was 26.8 µM (inactive).
`COc1cc(C=O)c(-c2c(C=O)ccc3c2OCO3)c(OC)c1OC` was tested, and the GI50 (SK-MEL-2) was > 100 µM (inactive), the GI50 (IGROV-1) was > 100 µM (inactive) and the GI50 (HL-60) was 26.7 µM (inactive). For the same compound, the GI50 (ACHN) was > 100 µM (inactive), the GI50 (786-0) was > 100 µM (inactive) and the GI50 (UACC-257) was > 100 µM (inactive). The GI50 (K562) was 37.2 µM (inactive), the GI50 (HCT-15) was 80.4 µM and the GI50 (OVCAR-4) was > 100 µM (inactive). The GI50 (SF-295) was 60.4 µM (inactive), the GI50 (U-251) was 70.1 µM (inactive) and the GI50 (SNB-75) was 55.2 µM (inactive). The GI50 (SF-539) was > 100 µM (inactive), the GI50 (SK-MEL-5) was > 100 µM (inactive) and the GI50 (SK-MEL-28) was 74.6 µM (inactive). For the same compound, the GI50 (HCC 2998) was > 100 µM (inactive) and the GI50 (HCT-116) was > 100 µM (inactive).
For `Nc1nc(CCl)nc(Nc2ccccc2)n1`, the GI50 (SK-MEL-2) was 18.8 µM (inactive), the GI50 (IGROV-1) was 16.6 µM (inactive) and the GI50 (HL-60) was 3.27 µM (inactive). For the same compound, the GI50 (ACHN) was 27 µM (inactive), the GI50 (786-0) was 2 µM (inactive) and the GI50 (UACC-257) was 15.9 µM (inactive). The GI50 (K562) was > 10 µM (inactive), the GI50 (OVCAR-4) was 17.4 µM (inactive) and the GI50 (SF-295) was 23.8 µM (inactive). The GI50 (U-251) was 3.99 µM (inactive), the GI50 (SNB-75) was 6.24 µM (inactive) and the GI50 (SF-539) was 25 µM (inactive). For the same compound, the GI50 (SK-MEL-5) was 17.5 µM (inactive), the GI50 (SK-MEL-28) was 15.8 µM (inactive) and the GI50 (HCC 2998) was 17.4 µM (inactive). For the same compound, the GI50 (HCT-116) was 19.5 µM (inactive) and the GI50 (HOP-92) was 18.2 µM (inactive).
In the case of `Nc1ccc(C(=O)NN2C(=O)C(Cl)C2c2cc(Br)cc(Br)c2O)cc1` (stereo not given), the GI50 (SK-MEL-2) is reported as 10.6 µM (inactive), the GI50 (IGROV-1) is reported as 13.3 µM (inactive) and the GI50 (HL-60) is reported as 1.31 µM (inactive). For the same compound, the GI50 (ACHN) was 5.74 µM (inactive), the GI50 (786-0) was 8.3 µM (inactive) and the GI50 (UACC-257) was 7.67 µM (inactive). For the same compound, the GI50 (HCT-15) was 3.78 µM, the GI50 (OVCAR-4) was 10.3 µM (inactive) and the GI50 (SF-295) was 10.3 µM (inactive). For the same compound, the GI50 (U-251) was 11.1 µM (inactive), the GI50 (SNB-75) was 18 µM (inactive) and the GI50 (SF-539) was 12.8 µM (inactive). For the same compound, the GI50 (SK-MEL-5) was 16.5 µM (inactive), the GI50 (SK-MEL-28) was 22.9 µM (inactive) and the GI50 (HCC 2998) was 16.8 µM (inactive). For the same compound, the GI50 (HCT-116) was 6.79 µM (inactive) and the GI50 (HOP-92) was 24.2 µM (inactive).
`NC1=C(NC(=O)Cc2ccccc2F)C(=O)c2ccccc2C1=O` was tested, and the GI50 (SK-MEL-2) was 14.3 µM (inactive), the GI50 (IGROV-1) was 38.8 µM (inactive) and the GI50 (HL-60) was 88.3 µM (inactive). The GI50 (ACHN) was 76.9 µM (inactive), the GI50 (786-0) was 27.1 µM (inactive) and the GI50 (UACC-257) was 29.6 µM (inactive). The GI50 (K562) was > 100 µM (inactive), the GI50 (HCT-15) was 24.2 µM and the GI50 (OVCAR-4) was 42 µM (inactive). The GI50 (SF-295) was 32.6 µM (inactive), the GI50 (U-251) was 36.5 µM (inactive) and the GI50 (SNB-75) was 18.8 µM (inactive). The GI50 (SF-539) was 26.9 µM (inactive), the GI50 (SK-MEL-28) was > 100 µM (inactive) and the GI50 (HCC 2998) was > 100 µM (inactive). The GI50 (HCT-116) was 44 µM (inactive) and the GI50 (HOP-92) was 22.3 µM (inactive).
`COc1ccc2c3c([nH]c2c1[N+](=O)[O-])C(C)N(C(=O)/C=C/c1ccccc1)CC3` (stereo not given) was tested, and the GI50 (SK-MEL-2) was 10.7 µM (inactive), the GI50 (IGROV-1) was > 100 µM (inactive) and the GI50 (HL-60) was 2.64 µM (inactive). For the same compound, the GI50 (ACHN) was 9.77 µM (inactive), the GI50 (786-0) was 12.7 µM (inactive) and the GI50 (UACC-257) was 3.83 µM (inactive). For the same compound, the GI50 (K562) was 2.88 µM (inactive), the GI50 (HCT-15) was 5.71 µM and the GI50 (OVCAR-4) was 21.9 µM (inactive). For the same compound, the GI50 (SF-295) was 2.42 µM (inactive), the GI50 (U-251) was 7.01 µM (inactive) and the GI50 (SF-539) was 10.8 µM (inactive). For the same compound, the GI50 (SK-MEL-28) was 5.14 µM (inactive) and the GI50 (HCC 2998) was 21.5 µM (inactive).
